Key:
[1] = sulfimine adduct; obtained from previous report; the values are: ln(kobs), kobs in 1/h; cited from earlier work
[2] = system: CDK4; assay: Western blot of Rb phosphorylation (S780, S807/811) as cellular CDK4 activity; format: cell-based, human; conditions: serum-synchronized MCF-7 cells, dose of 500 μM
Experimental: Cells were synchronized to G1 via serum starvation. Cells were plated at 50% confluency and allowed to adhere overnight in serum-containing media. The next morning, the cells were gently washed twice with HBSS, and serum-free media was added. Cells were allowed to incubate an additional […], […]. Final cell confluency should remain below 75% for optimal results.
Cells were seeded in full media at 8 e5 cells/well in a 6-well plate. They were then serum-synchronized, as outlined in Example 15, and treated with compound as described previously. Cells were monitored by eye for cell death and harvested once high-dose cells were round but not detached. Cells were transferred to ice and washed twice gently with 1 mL ice-cold PBS. 10 mL of lysis buffer was prepared by dissolved a protease-inhibitor table (Pierce; cat no. A32953) and a phosphatase-inhibitor tablet (Roche; cat no. 4906845001) in 10 mL PBS (1% Triton X-100). Cells were scraped to harvest, transferred to 1.5 mL Eppendorf tubes, and incubated at 4° C. for 30 min on a rotator. Samples were spun at 5000×g for 10 min to clarify lysate. Supernatant was transferred to a new tube and protein concentration quantified via BCA assay (Pierce; cat no. 23225). Samples were normalized to the lowest concentration using chilled lysis buffer. […]

For CS(C)=NC(=O)N1CCCCC1, the Rate of Hydrolysis (In(kobs)) [1] is listed as -1.81.

For CC(C)NC(=O)N=S(C)C, the Rate of Hydrolysis (In(kobs)) [1] is listed as 0.044.

For CS(C)=NC(=O)NCc1ccccc1, the Rate of Hydrolysis (In(kobs)) [1] is given as 0.29.

In the case of CC(C)CNC(=O)N=S(C)C, the Rate of Hydrolysis (In(kobs)) [1] is given as -0.085.

In the case of CS(C)=NC(=O)N1CCCC1, the Rate of Hydrolysis (In(kobs)) [1] is listed as -0.96.

For CS(C)=NC(=O)NCC(F)(F)F, the Rate of Hydrolysis (In(kobs)) [1] is given as 0.53.

For CS(C)=NC(=O)NC(c1ccccc1)c1ccccc1, the Rate of Hydrolysis (In(kobs)) [1] is given as 0.24.

For C#CCOC(=O)N1C[C@@H]2CN(C(=O)N3OC3c3ccccc3)C[C@@H]2C1 (stereo partly shown) [Compound 300], the “signal from pRb antibodies (cellular CDK4 activity)” value [2] was “marked decrease in signal”.

In the case of CCOC(=O)N=S(C)C, the Rate of Hydrolysis (In(kobs)) [1] is given as 1.69.

In the case of CCNC(=O)N=S(C)C, the Rate of Hydrolysis (In(kobs)) [1] is listed as 0.17.

In the case of CS(C)=NC(=O)NC(C)(C)C, the Rate of Hydrolysis (In(kobs)) [1] is given as -0.28.

For CS(C)=NC(=O)NC1CCCCC1, the Rate of Hydrolysis (In(kobs)) [1] is listed as 0.032.

For CS(C)=NC(=O)NCC(C)(C)C, the Rate of Hydrolysis (In(kobs)) [1] is listed as -0.15.
